This is an account of results in patent US20240342292A1, “Compounds for the Degradation of EGFR Kinase” (BeiGene Switzerland GmbH, priority 2021, published 2024).

The subject of one series is Del19/T790M/C797S EGFR. Nature of the series: EGFR degradation HTRF assay in H1975-clone #28 (DTC) cells. The series is classed as cell-based. Particulars: H1975 # 28 DTC (Del19/T790M/C797S), 16h treatment; for DC50: HTRF; for Dmax (%): maximum percentage of degradation. The gist of the method: (§1)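 Engineered H1975 lines (exogenous mutant EGFR, endogenous copies knocked out, single clones sequence-verified); 16 h compound, 37 °C/5% CO2, 0.2% DMSO; top 10 uM, 5-fold, 8 pts; lysis 1 h RT, HTRF antibodies overnight RT; 4-parameter logistic fit → DC50.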
On the technique in general: In TR-FRET formats the signal depends on donor and acceptor labels being close together.

In a further series the target is T1, L858R/T790M/C797S EGFR (Homo sapiens, UniProt P00533, C797S/L858R/T790M).
T1 construct: expressed in transfected cells; host or cells: H1975 clone #25 (lentiviral over-expression, endogenous EGFR knocked out by sgRNA)
As to the kind of experiment: EGFR degradation HTRF assay in H1975-clone #25 (LTC) cells. Particulars: 16h treatment; for DC50: H1975 # 25-LTC (L858R/T790M/C797S), HTRF; for Dmax: NCI-H1975, H1975 # 25-LTC (L858R/T790M/C797S), maximum percentage of degradation. The series is classed as cell-based. The procedure, abridged: as §1

For a further series, the system named is Del19/C797S EGFR. As to the kind of experiment: EGFR degradation HTRF assay in H1975-clone #23 (DC) cells. The series is classed as cell-based. Particulars: H1975 #23 DC (Del19/C797S), 16h treatment. An excerpt:
H1975-clone #28(Del19/T790M/C797S, or abbr: DTC), H1975-clone #23(Del19/C797S, or abbr: DC), H1975-clone #25(L858R/T790M/C797S, or abbr: LTC) and H1975-clone #8 (L858R/C797S, or abbr: LC). EGFR-Del19:T790M/C797S, EGFR-Del19/C797S, EGFR-L858R/T790M/C797S and EGFR-L858R/C797S were stably expressed in H1975 cell lines by lentivirus-mediated over-expression, respectively. The EGFR over-expressed cells then underwent knockout, in which the EGFR targeting sgRNA was designed to only target the endogenous EGFR copies and preserve the exogenous EGFR copies. Followed by the knockout, the edited H1975 cells were seeded in 96 well plates at the concentration of […], cultured for about 2 weeks to allow single clones formation. The formed clones were screened by DNA sequencing and whole exon sequencing analysis for the desired edition. H1975-clone #28, H1975-clone #23, H1975-clone #25 and H1975-clone #8 were finally confirmed as homozygous Del19/T790M/C797S EGFR, Dell9/C797S EGFR, L858R/T790M/C797S EGFR and L858R/C797S EGFR clones, respectively.
H1975-#25, H1975-#28, H1975-#23 and H1975-#8 cells are treated with compounds diluted in 0.2% DMSO cell culture medium on day 2, incubate for 16h, 37° C., 5% CO2. the final concentration of compounds in all assay is start with 10 uM, 5-fold dilution, total 8 doses were included.
After 16h treatment, add HTRF lysis buffer to each well; seal the plate and incubate 1 hour at room temperature on a plate shaker; Once the cells are lysed, 16 μL of cell lysate are transferred to a PE 384-well HTRF detection plate; 4 μL of pre-mixed HTRF antibodies are added to each well; Cover the plate with a plate sealer, spin 1000 rpm for 1 min, Incubate overnight at room temperature; Read on BMG PheraStar with HTRF protocol (337 nm-665 nm-620 nm).
The IC50 (DC50) value of a compound can be obtained by fitting the following equation
Y=Bottom+(TOP−Bottom)/(1+((IC50/X)^hillslope))
Wherein, X and Y are known values, and IC50, Hillslope, Top and Bottom are the parameters obtained by fitting with software. Y is the inhibition percentage (calculated from the equation), X is the concentration of the compound: IC50 is the concentration of the compound when the 50% inhibition is reached. The smaller the IC50 value is, the stronger the inhibitory ability of the compound is. Vice versa, the higher the IC50 value is, the weaker the ability the inhibitory ability of the compound is: Hillslope represents the slope of the fitted curve, generally around 1*; Bottom represents the minimum value of the curve obtained by data fitting, which is generally 0%±20%; Top represents the maximum value of the curve obtained by data fitting, which is generally 100%±20%. The experimental data were fitted by calculating and analyzing with Dotmatics data analysis software.

For series [1] the following is noted: amide bond, 15-membered ring.

Like-named read-outs stand apart in the source and are kept apart here.

T1 sequence (P00533 25-1210 T790M/C797S/L858R): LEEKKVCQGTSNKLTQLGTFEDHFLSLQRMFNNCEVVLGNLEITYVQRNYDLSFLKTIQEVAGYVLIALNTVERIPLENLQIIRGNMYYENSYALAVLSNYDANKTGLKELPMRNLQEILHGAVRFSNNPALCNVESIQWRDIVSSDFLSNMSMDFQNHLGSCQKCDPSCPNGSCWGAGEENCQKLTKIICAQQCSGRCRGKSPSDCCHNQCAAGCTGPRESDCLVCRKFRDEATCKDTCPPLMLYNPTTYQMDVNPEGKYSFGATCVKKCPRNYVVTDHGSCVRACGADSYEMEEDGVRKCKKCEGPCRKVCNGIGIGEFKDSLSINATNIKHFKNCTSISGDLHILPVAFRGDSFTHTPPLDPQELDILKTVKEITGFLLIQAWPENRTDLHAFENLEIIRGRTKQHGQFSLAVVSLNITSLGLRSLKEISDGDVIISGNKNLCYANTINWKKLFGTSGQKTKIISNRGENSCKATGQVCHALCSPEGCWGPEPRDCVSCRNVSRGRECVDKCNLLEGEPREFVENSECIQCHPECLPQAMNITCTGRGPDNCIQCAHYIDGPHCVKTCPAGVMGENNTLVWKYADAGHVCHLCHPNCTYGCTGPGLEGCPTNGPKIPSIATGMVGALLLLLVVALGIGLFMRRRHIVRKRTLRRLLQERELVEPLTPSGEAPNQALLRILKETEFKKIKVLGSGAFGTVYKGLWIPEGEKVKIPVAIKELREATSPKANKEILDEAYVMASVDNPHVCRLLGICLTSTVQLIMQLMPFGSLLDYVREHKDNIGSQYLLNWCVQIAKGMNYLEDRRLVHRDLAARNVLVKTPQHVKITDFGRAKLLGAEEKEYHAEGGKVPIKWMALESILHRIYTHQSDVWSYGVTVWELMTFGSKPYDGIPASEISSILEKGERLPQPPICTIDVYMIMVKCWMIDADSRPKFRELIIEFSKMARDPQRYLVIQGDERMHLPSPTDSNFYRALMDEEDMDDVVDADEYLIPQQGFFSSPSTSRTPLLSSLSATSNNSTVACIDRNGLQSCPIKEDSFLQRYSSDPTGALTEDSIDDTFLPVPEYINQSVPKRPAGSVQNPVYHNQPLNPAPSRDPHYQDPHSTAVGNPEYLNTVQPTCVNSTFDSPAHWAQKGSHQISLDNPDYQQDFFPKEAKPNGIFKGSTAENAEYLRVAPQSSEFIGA

For `Cc1cc2cc(n1)-c1cnn(C)c1OCCC[C@@H](C)CN1/C(=N/C2=O)Nc2ccc(CN3CCN(C(=O)[C@@H]4CCN(c5cc(F)c([C@H]6CCC(=O)NC6=O)c(F)c5)C4)CC3)cc21` [Example 5, (R)-3-(2,6-difluoro-4-((R)-3-(4-(((R,E)-1^1,2^6,7-trimethyl-3-oxo-5^2,5^3-dihydro-1^1H,5^1H-11-oxa-4-aza-5(2,1)-benzo[d]imidazola-2(2,4)-pyridina-1(4,5)-pyrazolacycloundecaphane-5^6-yl)methyl)piperazine-1-carbonyl)pyrrolidin-1-yl)phenyl)piperidine-2,6-dione], the figures for the DC50 in the series with Del19/T790M/C797S EGFR, on L858R/T790M/C797S EGFR and in the series on Del19/C797S EGFR (HTRF) were 1.5 nM, 2 nM and 0.6 nM, respectively. Moreover, the “Dmax (%)” value worked out at 72.0% in the series on Del19/T790M/C797S EGFR and 67.6% in the series with Del19/C797S EGFR (maximum percentage of degradation). Also, the Dmax (usually the greatest extent of degradation seen) at L858R/T790M/C797S EGFR came out at 83%.
Turning to `COC(=O)c1cc(C)nc(-c2cnn(C)c2OCC[C@H]2C[C@@H]2Cn2c(=N)[nH]c3ccc(Br)cc32)c1`, the ring closure, isolated yield in series [1] (the molecule shown is the open-chain precursor, LiHMDS, DMF/THF, 56.7 mM, 25.0 °C) amounted to 49.6%.
“tert-butyl (R,E)-3-oxo-4-(1^1,2^6,7-trimethyl-3-oxo-5^2,5^3-dihydro-1^1H,5^1H-11-oxa-4-aza-5(2,1)-benzo[d]imidazola-2(2,4)-pyridina-1(4,5)-pyrazolacycloundecaphane-5′-yl)piperazine-1-carboxylate” had a ring closure, isolated yield in series [1] (HATU/DIEA, DCM, 155.0 mM, 25.0 °C) of 51.4%.
The molecule `COC(=O)c1cc(C)nc(-c2cnn(C)c2OCCC[C@@H](C)Cn2c(N)nc3ccc(N4CCC5(CC4=O)OCCO5)cc32)c1` had a ring closure, isolated yield in series [1] (the molecule shown is the open-chain precursor, LiHMDS, DMF/THF, 32.0 mM, 0.0 °C) of 54.5%.
Take `Cc1cc2cc(n1)-c1cnn(C)c1OCCC[C@@H](C)Cn1c(nc3ccc(Br)cc31)NC2=O`: the ring closure, isolated yield in series [1] (from Cc1cc(C(=O)O)cc(-c2cnn(C)c2OCCC[C@@H](C)Cn2c(N)nc3ccc(Br)cc32)n1, TBTU/TEA, DCM, 117.0 mM, 20.0 °C) was determined as 82%.
In the case of `Cc1cc2cc(n1)-c1cnn(C)c1OCCC[C@@H](C)CN1/C(=N/C2=O)Nc2ccc(C(=O)N(C)C3CCN(C4CCN(c5cc(F)c([C@H]6CCC(=O)NC6=O)c(F)c5)CC4)CC3)cc21` [Example 289, (R,E)-N-(1′-(4-((R)-2,6-dioxopiperidin-3-yl)-3,5-difluorophenyl)-[1,4′-bipiperidin]-4-yl)-N,1^1,2^6,7-tetramethyl-3-oxo-5^2,5^3-dihydro-1^1H,5^1H-11-oxa-4-aza-5(2,1)-benzo[d]imidazola-2(2,4)-pyridina-1(4,5)-pyrazolacycloundecaphane-5^6-carboxamide], in the series with Del19/T790M/C797S EGFR, half-maximal degradation (DC50) was put at 0.624 nM and the “Dmax (%)” value stood at 91.07%. Further, on L858R/T790M/C797S EGFR, the DC50 (as a rule, the concentration giving 50% degradation) was determined as 0.454 nM and the Dmax stood at 93.8%.
For the molecule `Cc1cc2cc(n1)-c1cnn(C)c1OCCC[C@@H](C)CN1/C(=N/C2=O)Nc2ccc(C(=O)N[C@H]3CCN(CCc4cc(F)c([C@H]5CCC(=O)NC5=O)c(F)c4)CC3(F)F)cc21` [Example 337, (R,E)-N—((S)-1-(4-((R)-2,6-dioxopiperidin-3-yl)-3,5-difluorophenethyl)-3,3-difluoropiperidin-4-yl)-1^12^6,7-trimethyl-3-oxo-5^2,5^3-dihydro-1^1H,5^1H-11-oxa-4-aza-5(2,1)-benzo[d]imidazola-2(2,4)-pyridina-1(4,5)-pyrazolacycloundecaphane-5^6-carboxamide], in the series on Del19/T790M/C797S EGFR, it took 0.608 nM to reach half-maximal degradation (DC50) and the “Dmax (%)” value came out at 79.69%. Further, at L858R/T790M/C797S EGFR, it took 0.535 nM to reach half-maximal degradation (DC50) and the Dmax was determined as 92%.
Regarding `Cc1cc2cc(n1)-c1cnn(C)c1OCC[C@H]1C[C@@H]1CN1/C(=N/C2=O)Nc2ccc(N3CCN(C4CCN(c5ccc(C6CCC(=O)NC6=O)nc5C)CC4)CC3)cc21` (some centres unmarked) [Example 465, 3-(5-(4-(4-((7^1S,7^2R,E)-1^1,2^6-dimethyl-3-oxo-5^2,5^3-dihydro-1^1H,5^1H-10-oxa-4-aza-5(2,1)-benzo[d]imidazola-2(2,4)-pyridina-1(4,5)-pyrazola-7(1,2)-cyclopropanacyclodecaphane-5^6-yl)piperazin-1-yl)piperidin-1-yl)-6-methylpyridin-2-yl)piperidine-2,6-dione], in the series with Del19/T790M/C797S EGFR, the DC50 amounted to 0.319 nM and the “Dmax (%)” value is on record as 90.39%. On L858R/T790M/C797S EGFR, this molecule had a DC50 of 0.472 nM and a Dmax of 94.8%.
For `Cc1cc2cc(n1)-c1cnn(C)c1OCCC[C@@H](C)CN1/C(=N/C2=O)Nc2ccc(CN3CCC4(CC3)CN(C(=O)[C@@H]3CCN(c5cc(F)c([C@H]6CCC(=O)NC6=O)c(F)c5)C3)C4)cc21` [Example 20, (R)-3-(2,6-difluoro-4-((R)-3-(7-(((R,E)-1^1,2^6,7-trimethyl-3-oxo-5^2,5^3-dihydro-1^1H,5^1H-li-oxa-4-aza-5(2,1)-benzo[d]imidazola-2(2,4)-pyridina-1(4,5)-pyrazolacycloundecaphane-5^6-yl)methyl)-2,7-diazaspiro[3.5]nonane-2-carbonyl)pyrrolidin-1-yl)phenyl)piperidine-2,6-dione], in the series on Del19/T790M/C797S EGFR, the 50% degradation concentration (DC50) came to 0.7 nM and the “Dmax (%)” value is 79.0%. At L858R/T790M/C797S EGFR, half-maximal degradation (DC50) was put at 0.9 nM and the Dmax amounted to 89%.
The matching figures for `Cc1cc2cc(n1)-c1cnn(C)c1OCCC[C@@H](C)CN1/C(=N/C2=O)Nc2ccc(C(=O)N3CCC(N(C)CCc4cc(F)c([C@H]5CCC(=O)NC5=O)c(F)c4)CC3)cc21` [Example 299, (R)-3-(2,6-difluoro-4-(2-(methyl(1-((R,E)-1^1,2^6,7-trimethyl-3-oxo-5^2,5^3-dihydro-1^1H,5^1H-11-oxa-4-aza-5(2,1)-benzo[d]imidazola-2(2,4)-pyridina-1(4,5)-pyrazolacycloundecaphane-5^6-carbonyl)piperidin-4-yl)amino)ethyl)phenyl)piperidine-2,6-dione]: 0.611 nM, 66.17%, 0.468 nM and 86.9%.
As for `Cc1cc2cc(n1)-c1cnn(C)c1OCCC[C@@H](C)CN1/C(=N/C2=O)Nc2ccc(N3CCC(N4CC(Nc5cc(F)c([C@H]6CCC(=O)NC6=O)c(F)c5)C4)CC3)cc21` [Example 392, (R)-3-(2,6-difluoro-4-((1-(1-((R,E)-1^1,2^6,7-trimethyl-3-oxo-5^2,5^3-dihydro-1^1H,5^1H-11-oxa-4-aza-5(2,1)-benzo[d]imidazola-2(2,4)-pyridina-1(4,5)-pyrazolacycloundecaphane-5^6-yl)piperidin-4-yl)azetidin-3-yl)amino)phenyl)piperidine-2,6-dione], in the series on Del19/T790M/C797S EGFR, the DC50 came to 0.821 nM and the “Dmax (%)” value is given as 75.48%. On L858R/T790M/C797S EGFR, it took 1.29 nM to reach half-maximal degradation (DC50) and the Dmax is 86.7%.
`Cc1cc2cc(n1)-c1cnn(C)c1OCCC[C@@H](C)CN1/C(=N/C2=O)Nc2ccc(N3CCN(C4CCN(c5cc(F)c([C@H]6CCC(=O)NC6=O)c(F)c5)CC4)C(=O)C3)cc21` [Example 425, (R)-3-(2,6-difluoro-4-(4-(2-oxo-4-((R,E)-1^1,2^6,7-trimethyl-3-oxo-5^2,5^3-dihydro-1^1H,5^1H-11-oxa-4-aza-5(2,1)-benzo[d]imidazola-2(2,4)-pyridina-1(4,5)-pyrazolacycloundecaphane-5^6-yl)piperazin-1-yl)piperidin-1-yl)phenyl)piperidine-2,6-dione]: in the series on Del19/T790M/C797S EGFR, the DC50 was determined as 0.957 nM and the “Dmax (%)” value is given as 83.85%. Further, on L858R/T790M/C797S EGFR, the DC50 was found to be 0.73 nM and the Dmax turned out to be 92.7%.
